Data published in publication PMC8552062, “Contributions of UDP-Glucuronosyltransferases to Human Hepatic and Intestinal Metabolism of Ticagrelor and Inhibition of UGTs and Cytochrome P450 Enzymes by Ticagrelor and its Glucuronidated Metabolite” (Frontiers in Pharmacology, 2021).

Assays:
Assay type in all cases: in vitro ADME
[1] = tested on: human intestinal microsomes (HIM); test: Ticagrelor glucuronidation kinetics in pooled HIM
Experimental: (§1) Ticagrelor glucuronidation was investigated in an in vitro incubation system by using HLM, HIM, and recombinant human UGTs. The incubation system consisted of enzyme sources (HLM, HIM, or human recombinant UGTs), various concentrations of ticagrelor (dissolved in 50% methanol, 1% v/v, 1, 2, 5, 10, 20, 50, 100, 200, 500 μM of final concentration), alamethicin (50 μg/mg protein), 5 mM MgCl2, 100 mM tris-HCL buffer (pH 7.4), and 5 mM UDPGA in a total volume of 100 μl. Alamethicin is a pore-forming polypeptide used to activate UGTs in HLM and HIM ([Fisher et al., 2000]). Preliminary studies were conducted to determine the optimal protein concentrations and incubation times. Linear conditions of ticagrelor-O-Glu formation from ticagrelor, i.e., HLM, 0.2 mg of protein/ml and 60 min, HIM, 0.2 mg of protein/ml and 60 min, and recombinant human UGTs, 0.2 mg of protein/ml and 60 min were selected. The incubation mixture without UDPGA was placed on ice for 15 min to activate UGT by alamethicin. After pre-incubation for 5 min at 37°C, the reactions were started by the addition of UDPGA. After another 60 min of incubation at 37°C, the reaction was terminated by adding 100 μl of acetonitrile containing internal standard (diazepam). The mixture vortexed for 2 min and then centrifuged at 14,000 rpm for 10 min at 4°C. The resulting supernatant was injected into a liquid chromatography tandem mass spectrometry (LC-MS/MS, Applied Biosystems/MDS Sciex, Foster City, CA) system for the detection of ticagrelor-O-Glu.
Kinetic analyses were performed using the mean values of triplicate determinations with either pooled HLM, HIM, or recombinant human UGTs. All data were analyzed by nonlinear regression analysis using the GraphPad Prism 6 (GraphPad Software Inc., CA, United States). Michaelis-Menten kinetics (Eq. 1) or substrate inhibition kinetics (Eq. 2) ([Houston and Kenworthy, 2000]) were tested to determine the optimal model for describing the data. […] Intrinsic clearance (CLint) was calculated by dividing Vmax by Km.

[2] = molecular target: T1, UGT1A7 (Homo sapiens, UniProt Q9HAW7); test: Ticagrelor glucuronidation by recombinant human UGT1A7; conditions: recombinant human UGT1A7, pH 7.4
T1 construct: purchased BD Gentest; host or cells: baculovirus-infected insect cells
T1 sequence (Q9HAW7 26-530): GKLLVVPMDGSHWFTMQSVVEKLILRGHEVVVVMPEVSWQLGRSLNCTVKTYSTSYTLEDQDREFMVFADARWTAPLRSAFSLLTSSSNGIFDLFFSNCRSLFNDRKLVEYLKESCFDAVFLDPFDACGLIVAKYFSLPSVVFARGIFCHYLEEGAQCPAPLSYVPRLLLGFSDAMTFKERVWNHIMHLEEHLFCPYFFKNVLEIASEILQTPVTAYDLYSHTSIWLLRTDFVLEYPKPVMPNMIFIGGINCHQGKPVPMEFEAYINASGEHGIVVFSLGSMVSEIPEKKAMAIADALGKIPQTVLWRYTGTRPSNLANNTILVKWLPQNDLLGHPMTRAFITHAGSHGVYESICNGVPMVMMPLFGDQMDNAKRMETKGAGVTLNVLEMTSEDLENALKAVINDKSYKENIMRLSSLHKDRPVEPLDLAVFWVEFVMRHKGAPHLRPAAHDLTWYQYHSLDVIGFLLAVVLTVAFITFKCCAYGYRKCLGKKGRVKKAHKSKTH
Experimental: as §1, with “After pre-incubation for 5 min at 37°C, the reactions were started by the addition of UDPGA. After another 60 min of incubation at 37°C, the reaction was terminated by adding 100 μl of acetonitrile containing internal standard (diazepam). The mixture vortexed for 2 min and then centrifuged at 14,000 rpm for 10 min at 4°C. The resulting supernatant was injected into a liquid chromatography tandem mass spectrometry (LC-MS/MS, Applied Biosystems/MDS Sciex, Foster City, CA) system for the detection of ticagrelor-O-Glu.” left out
(§2) Kinetic analyses were performed using the mean values of triplicate determinations with either pooled HLM, HIM, or recombinant human UGTs. All data were analyzed by nonlinear regression analysis using the GraphPad Prism 6 (GraphPad Software Inc., CA, United States). […] Intrinsic clearance (CLint) was calculated by dividing Vmax by Km.

[3] = molecular target: T2, UGT1A9 (Homo sapiens, UniProt O60656); test: Ticagrelor glucuronidation by recombinant human UGT1A9; parameters: purchased BD Gentest; host or cells: baculovirus-infected insect cells; conditions: recombinant human UGT1A9, pH 7.4
T2 sequence (O60656 26-530): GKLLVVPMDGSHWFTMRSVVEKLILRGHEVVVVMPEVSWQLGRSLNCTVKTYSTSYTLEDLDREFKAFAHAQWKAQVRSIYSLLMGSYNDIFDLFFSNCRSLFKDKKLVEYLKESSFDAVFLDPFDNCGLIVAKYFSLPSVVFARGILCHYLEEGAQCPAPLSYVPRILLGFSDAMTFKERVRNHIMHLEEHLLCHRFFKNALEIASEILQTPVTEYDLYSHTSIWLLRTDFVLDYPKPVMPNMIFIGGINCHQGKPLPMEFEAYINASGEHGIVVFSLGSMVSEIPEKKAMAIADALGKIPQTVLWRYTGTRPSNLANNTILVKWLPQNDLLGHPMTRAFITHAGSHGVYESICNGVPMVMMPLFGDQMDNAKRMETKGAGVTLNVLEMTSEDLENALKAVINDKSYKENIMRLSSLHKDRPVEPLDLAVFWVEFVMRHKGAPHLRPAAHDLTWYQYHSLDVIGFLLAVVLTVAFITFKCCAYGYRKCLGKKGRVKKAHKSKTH
Experimental: as §1, with “After pre-incubation for 5 min at 37°C, the reactions were started by the addition of UDPGA. After another 60 min of incubation at 37°C, the reaction was terminated by adding 100 μl of acetonitrile containing internal standard (diazepam). The mixture vortexed for 2 min and then centrifuged at 14,000 rpm for 10 min at 4°C. The resulting supernatant was injected into a liquid chromatography tandem mass spectrometry (LC-MS/MS, Applied Biosystems/MDS Sciex, Foster City, CA) system for the detection of ticagrelor-O-Glu.” left out
as §2

[4] = molecular target: T3, UGT1A6 (Homo sapiens, UniProt P19224); test: Ticagrelor glucuronidation screen, recombinant human UGT1A6; parameters: purchased BD Gentest; host or cells: baculovirus-infected insect cells; conditions: 10 μM ticagrelor
T3 sequence (P19224 27-532): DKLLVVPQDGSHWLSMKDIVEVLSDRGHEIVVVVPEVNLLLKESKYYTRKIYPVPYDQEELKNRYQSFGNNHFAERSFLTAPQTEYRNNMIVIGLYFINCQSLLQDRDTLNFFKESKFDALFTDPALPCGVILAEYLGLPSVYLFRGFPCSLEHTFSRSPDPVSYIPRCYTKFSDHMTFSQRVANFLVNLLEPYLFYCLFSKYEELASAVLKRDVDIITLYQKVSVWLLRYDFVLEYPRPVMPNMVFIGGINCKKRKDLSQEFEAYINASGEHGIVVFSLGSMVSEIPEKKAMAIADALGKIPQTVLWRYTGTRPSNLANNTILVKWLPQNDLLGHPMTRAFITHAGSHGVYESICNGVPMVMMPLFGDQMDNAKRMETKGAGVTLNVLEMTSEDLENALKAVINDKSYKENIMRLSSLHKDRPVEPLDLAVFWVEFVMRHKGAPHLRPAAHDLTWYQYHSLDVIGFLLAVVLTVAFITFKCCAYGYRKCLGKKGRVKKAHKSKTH
Experimental: as §1, with “The resulting supernatant was injected into a liquid chromatography tandem mass spectrometry (LC-MS/MS, Applied Biosystems/MDS Sciex, Foster City, CA) system for the detection of ticagrelor-O-Glu.” left out

Km ([1]; pooled HIM 0.2 mg protein/ml, 60 min, substrate inhibition kinetics): 2.52 µM
microsomal CLint [2]: 0.07 µL/min/mg
microsomal CLint [3]: 0.56 µL/min/mg
glucuronidation activity for ticagrelor [4]: no glucuronidation activities
Structure (SMILES): CCCSc1nc(N[C@@H]2C[C@H]2c2ccc(F)c(F)c2)c2nnn([C@@H]3C[C@H](OCCO)[C@@H](O)[C@H]3O)c2n1 [Ticagrelor]
Ksi ([1]; pooled HIM): 292.9 µM
Vmax ([1]; pooled HIM): 0.90 pmol·min^−1·mg protein^−1
